Experimental data from patent publication US10098351B2, “Herbicidal compounds” (SYNGENTA PARTICIPATIONS AG, priority 2014, dated 2018).

Legend:
Type in all cases: in vivo
[1] = tested on: Setaria faberi; assay: Post-emergence herbicidal activity, SETFA; conditions: application post-emergence, 1000 g/Ha, evaluated after 13 days; 5=total damage to plant, 0=no damage to plant
Procedure: (§1) Seeds of a variety of test species were sown in standard soil in pots. After 8 days cultivation (post-emergence) under controlled conditions in a glasshouse (at 24/16° C., day/night; 14 hours light; 65% humidity), the plants were sprayed with an aqueous spray solution derived from the formulation of the technical active ingredient in acetone/water (50:50) solution containing 0.5% Tween 20 (polyoxyethelyene sorbitan monolaurate, CAS RN 9005-64-5). The test plants were then grown in a glasshouse under controlled conditions (at 24/16° C., day/night; 14 hours light; 65% humidity) and watered twice daily. After 13 days, the test was evaluated (5=total damage to plant; 0=no damage to plant).

[2] = tested on: Lolium perenne; assay: Pre-emergence herbicidal activity, LOLPE; conditions: application pre-emergence, 1000 g/Ha, evaluated after 13 days; 5=total damage to plant, 0=no damage to plant
Procedure: as §1, with “After” for “After 8 days”, “for one day (pre-emergence)” for “(post-emergence)”

[3] = tested on: Abutilon theophrasti; assay: Pre-emergence herbicidal activity, ABUTH; conditions: application pre-emergence, 1000 g/Ha, evaluated after 13 days; 5=total damage to plant, 0=no damage to plant
Procedure: as §1, with “After” for “After 8 days”, “for one day (pre-emergence)” for “(post-emergence)”

[4] = tested on: Amaranthus retroflexus; assay: Pre-emergence herbicidal activity, AMARE; conditions: application pre-emergence, 1000 g/Ha, evaluated after 13 days; 5=total damage to plant, 0=no damage to plant
Procedure: as §1, with “After” for “After 8 days”, “for one day (pre-emergence)” for “(post-emergence)”

[5] = tested on: Echinochloa crus-galli; assay: Pre-emergence herbicidal activity, ECHCG; conditions: application pre-emergence, 1000 g/Ha, evaluated after 13 days; 5=total damage to plant, 0=no damage to plant
Procedure: as §1, with “After” for “After 8 days”, “for one day (pre-emergence)” for “(post-emergence)”

[6] = tested on: Zea mays; assay: Post-emergence herbicidal activity, ZEAMX; conditions: application post-emergence, 1000 g/Ha, evaluated after 13 days; 5=total damage to plant, 0=no damage to plant
Procedure: as §1

[7] = tested on: Setaria faberi; assay: Pre-emergence herbicidal activity, SETFA; conditions: application pre-emergence, 1000 g/Ha, evaluated after 13 days; 5=total damage to plant, 0=no damage to plant
Procedure: as §1, with “After” for “After 8 days”, “for one day (pre-emergence)” for “(post-emergence)”

[8] = tested on: Amaranthus retroflexus; assay: Post-emergence herbicidal activity, AMARE; conditions: application post-emergence, 1000 g/Ha, evaluated after 13 days; 5=total damage to plant, 0=no damage to plant
Procedure: as §1

[9] = tested on: Abutilon theophrasti; assay: Post-emergence herbicidal activity, ABUTH; conditions: application post-emergence, 1000 g/Ha, evaluated after 13 days; 5=total damage to plant, 0=no damage to plant
Procedure: as §1

[10] = tested on: Zea mays; assay: Pre-emergence herbicidal activity, ZEAMX; conditions: application pre-emergence, 1000 g/Ha, evaluated after 13 days; 5=total damage to plant, 0=no damage to plant
Procedure: as §1, with “After” for “After 8 days”, “for one day (pre-emergence)” for “(post-emergence)”

[11] = tested on: Echinochloa crus-galli; assay: Post-emergence herbicidal activity, ECHCG; conditions: application post-emergence, 1000 g/Ha, evaluated after 13 days; 5=total damage to plant, 0=no damage to plant
Procedure: as §1

[12] = tested on: Lolium perenne; assay: Post-emergence herbicidal activity, LOLPE; conditions: application post-emergence, 1000 g/Ha, evaluated after 13 days; 5=total damage to plant, 0=no damage to plant
Procedure: as §1

CON1C(=O)N(c2ncc(C(F)(F)F)s2)C(O)C1C (centres unmarked) [Compound B7]
SETFA damage score [1]: 5 | LOLPE damage score [2]: 4 | ABUTH damage score [3]: 5 | AMARE damage score [4]: 5 | ECHCG damage score [5]: 4 | ZEAMX damage score [6]: 4 | SETFA damage score [7]: 5 | AMARE damage score [8]: 5 | ABUTH damage score [9]: 5 | ZEAMX damage score [10]: 3 | ECHCG damage score [11]: 5 | LOLPE damage score [12]: 5

CCOC1C(O)N(c2ncc(C(C)C)s2)C(=O)N1C (centres unmarked) [Compound A10]
SETFA damage score [1]: 2 | LOLPE damage score [2]: 0 | ABUTH damage score [3]: 0 | AMARE damage score [4]: 4 | ECHCG damage score [5]: 0 | ZEAMX damage score [6]: 0 | SETFA damage score [7]: 0 | AMARE damage score [8]: 3 | ABUTH damage score [9]: 4 | ZEAMX damage score [10]: 0 | ECHCG damage score [11]: 2

CN1C(=O)N(c2ncc(C(F)(F)F)s2)C(O)C1O (centres unmarked) [Compound A4, 4,5-dihydroxy-1-methyl-3-[5-(trifluoromethyl)thiazol-2-yl]imidazolidin-2-one]
SETFA damage score [1]: 5 | LOLPE damage score [2]: 4 | ABUTH damage score [3]: 5 | AMARE damage score [4]: 5 | ECHCG damage score [5]: 5 | ZEAMX damage score [6]: 4 | SETFA damage score [7]: 4 | AMARE damage score [8]: 5 | ABUTH damage score [9]: 5 | ZEAMX damage score [10]: 3 | ECHCG damage score [11]: 5 | LOLPE damage score [12]: 5

CCO[C@@H]1C(O)N(c2ncc(C(F)(F)F)s2)C(=O)N1C (some centres unmarked) [Compound A8]
SETFA damage score [1]: 5 | LOLPE damage score [2]: 4 | ABUTH damage score [3]: 5 | AMARE damage score [4]: 5 | ECHCG damage score [5]: 5 | ZEAMX damage score [6]: 5 | SETFA damage score [7]: 5 | AMARE damage score [8]: 5 | ABUTH damage score [9]: 5 | ZEAMX damage score [10]: 3 | ECHCG damage score [11]: 5 | LOLPE damage score [12]: 5

COC1C(O)N(c2ncc(C(F)(F)F)s2)C(=O)N1C (centres unmarked) [Compound A3]
SETFA damage score [1]: 5 | LOLPE damage score [2]: 5 | ABUTH damage score [3]: 5 | AMARE damage score [4]: 5 | ECHCG damage score [5]: 5 | ZEAMX damage score [6]: 4 | SETFA damage score [7]: 5 | AMARE damage score [8]: 5 | ABUTH damage score [9]: 5 | ZEAMX damage score [10]: 2 | ECHCG damage score [11]: 5 | LOLPE damage score [12]: 5

CCOC1C(O)N(c2ncc(C(F)(F)F)s2)C(=O)N1C (centres unmarked) [Compound A2, 5-ethoxy-4-hydroxy-1-methyl-3-[5-(trifluoromethyl)thiazol-2-yl]imidazolidin-2-one]
SETFA damage score [1]: 5 | LOLPE damage score [2]: 5 | ABUTH damage score [3]: 5 | AMARE damage score [4]: 5 | ECHCG damage score [5]: 5 | ZEAMX damage score [6]: 5 | SETFA damage score [7]: 5 | AMARE damage score [8]: 5 | ABUTH damage score [9]: 5 | ZEAMX damage score [10]: 3 | ECHCG damage score [11]: 5 | LOLPE damage score [12]: 5

CCCOC1C(O)N(c2ncc(C(F)(F)F)s2)C(=O)N1C (centres unmarked) [Compound A1]
SETFA damage score [1]: 5 | LOLPE damage score [2]: 4 | ABUTH damage score [3]: 5 | AMARE damage score [4]: 5 | ECHCG damage score [5]: 5 | ZEAMX damage score [6]: 3 | SETFA damage score [7]: 4 | AMARE damage score [8]: 5 | ABUTH damage score [9]: 5 | ZEAMX damage score [10]: 1 | ECHCG damage score [11]: 5 | LOLPE damage score [12]: 5

CN1CC(O)N(c2ncc(C(F)(F)F)s2)C1=O (centres unmarked) [Compound A5, 4-hydroxy-1-methyl-3-[5-(trifluoromethyl)thiazol-2-yl]imidazolidin-2-one]
SETFA damage score [1]: 5 | LOLPE damage score [2]: 5 | ABUTH damage score [3]: 5 | AMARE damage score [4]: 5 | ECHCG damage score [5]: 4 | ZEAMX damage score [6]: 5 | SETFA damage score [7]: 5 | AMARE damage score [8]: 5 | ABUTH damage score [9]: 5 | ZEAMX damage score [10]: 2 | ECHCG damage score [11]: 5 | LOLPE damage score [12]: 5

CN1CC(O)N(c2ncc(C(C)(C)C)s2)C1=O (centres unmarked) [Compound A7]
SETFA damage score [1]: 5 | LOLPE damage score [2]: 4 | ABUTH damage score [3]: 5 | AMARE damage score [4]: 5 | ECHCG damage score [5]: 4 | ZEAMX damage score [6]: 5 | SETFA damage score [7]: 5 | AMARE damage score [8]: 5 | ABUTH damage score [9]: 5 | ZEAMX damage score [10]: 3 | ECHCG damage score [11]: 5 | LOLPE damage score [12]: 5

CCO[C@H]1C(O)N(c2ncc(C(F)(F)F)s2)C(=O)N1C (some centres unmarked) [Compound A9]
SETFA damage score [1]: 4 | LOLPE damage score [2]: 2 | ABUTH damage score [3]: 2 | AMARE damage score [4]: 5 | ECHCG damage score [5]: 1 | ZEAMX damage score [6]: 2 | SETFA damage score [7]: 4 | AMARE damage score [8]: 5 | ABUTH damage score [9]: 3 | ZEAMX damage score [10]: 1 | ECHCG damage score [11]: 2 | LOLPE damage score [12]: 3

C[C@@H]1C(O)N(c2ncc(C(F)(F)F)s2)C(=O)N1C (mixture of isomers) [Compound A6]
SETFA damage score [1]: 5 | LOLPE damage score [2]: 5 | ABUTH damage score [3]: 5 | AMARE damage score [4]: 5 | ECHCG damage score [5]: 5 | ZEAMX damage score [6]: 5 | SETFA damage score [7]: 5 | AMARE damage score [8]: 5 | ABUTH damage score [9]: 5 | ZEAMX damage score [10]: 4 | ECHCG damage score [11]: 5 | LOLPE damage score [12]: 5
